For 36 compounds, EC50 results are on record in patent publication US8772323B2, “Benzoxazole- and tetrahydrobenzoxazole-substituted pyridazinones as GPR119 agonists” (Boehringer Ingelheim International GmbH, priority 2010, dated 2014).

What is called EC50 is the concentration giving half of the maximal effect. Higher therefore signals a less potent agent.

For the assay, the target named is human GPR119 (Homo sapiens (Human), UniProt Q8TDV5). Kind of assay: AlphaScreen cAMP assay in Min-6/hGPR119 cells (GPR119 activation, intracellular cAMP). It is filed as cell-based. The note with it: MIN6 cells stably transfected with human GPR119; 45 minutes' incubation at RT; AlphaScreen cAMP Assay Kit. As for the experimental part: The compounds of formula I according to the invention are GPR119 agonists. The effect of the compounds on the activation of GPR119 and on the stimulation of intracellular cAMP concentration is determined using the AlphaScreen cAMP Assay Kit (Cat. No. #6760625R) made by PerkinElmer.
MIN6 cells [Miyazaki J et al. Endocrinology. 1990 July; 127(1):126-32] were stably transfected with an expression vector for human GPR119 cDNA (Acc. No. NP_848566). Min-6/hGPR119 cells are cultured in DMEM, 10% FBS, 50 μM β-mercaptoethanol, 0.3 mg/mL Geniticin, 2 mM GlutaMAX at 37° C. 5% CO2. For the assay, the cells are placed in Optiplates (white, 384-well, 160W-barcoded, TC, sterile with lid, Cat. No. #6007688 (Perkin Elmer); 10000 cells/well; 50 μl). The plates covered with lids are then incubated for 24 hours at 37° C./5% CO2.
After the medium has been sucked out of the wells completely, 10 μl of the test compound are added, the compounds are diluted beforehand with stimulating buffer (140 mM NaCl, 3.6 mM KCl, 0.5 mM NaH2PO4, 0.5 mM MgSO4, 1.5 mM CaCl2, 10 mM Hepes, 5 mM NaHCO3; pH 7.4. 0.5 mM IBMX and 0.1% BSA, the final DMSO concentration is 1%). After 45 minutes' incubation at RT, the cAMP concentrations are determined using the AlphaScreen cAMP Assay Kit (Cat. No. #6760625R from PerkinElmer).
(Alpha assays give light when donor and acceptor beads are brought close together.)

SMILES strings stand for the structures.

Chain of human GPR119 (Q8TDV5 whole entry): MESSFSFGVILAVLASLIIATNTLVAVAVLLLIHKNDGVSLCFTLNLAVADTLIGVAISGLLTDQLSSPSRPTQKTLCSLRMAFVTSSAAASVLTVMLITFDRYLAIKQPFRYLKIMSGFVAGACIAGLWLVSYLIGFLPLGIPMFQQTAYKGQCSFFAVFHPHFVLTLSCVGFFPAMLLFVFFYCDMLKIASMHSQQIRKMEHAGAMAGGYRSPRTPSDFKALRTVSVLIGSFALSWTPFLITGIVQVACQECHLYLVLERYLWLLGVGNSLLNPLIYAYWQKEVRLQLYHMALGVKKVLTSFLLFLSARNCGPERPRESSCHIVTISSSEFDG

`CCC1CC(=O)NN=C1c1ccc2nc(-c3ccc(OCCN4[C@@H](C)CC[C@@H]4C)cc3)oc2c1` (stereo in doubt) [Example 250, 6-(2-{4-[2-((2R,5R)-trans-2,5-dimethylpyrrolidin-1-yl)-ethoxy]-phenyl}-benzoxazol-6-yl)-5-ethyl-4,5-dihydro-2H-pyridazin-3-one] returned an EC50 of 235 nM. The result for `CCC[C@H]1C(=O)NN=C(c2ccc3nc(C4CC4)oc3c2)[C@@H]1C` (stereo in doubt) [Example 253, 6-(2-cyclopropyl-benzoxazol-6-yl)-5-methyl-4-propyl-4,5-dihydro-2H-pyridazin-3-one] reads 299 nM. In turn, `C[C@H]1CC(=O)NN=C1c1ccc2nc(-c3ccccc3)oc2c1` [Example 1, (S)-5-methyl-6-(2-phenyl-benzoxazol-6-yl)-4,5-dihydro-2H-pyridazin-3-one] came in with an EC50 of 660 nM. The result for `C[C@H]1CC(c2ccc3nc(-c4ccccc4)oc3c2)=NNC1=O` [Example 2, (S)-4-methyl-6-(2-phenyl-benzoxazol-6-yl)-4,5-dihydro-2H-pyridazin-3-one] reads 787 nM. To `C[C@@H]1CC(=O)NN=C1c1ccc2nc(-c3ccccc3)oc2c1` [Example 3, (R)-5-methyl-6-(2-phenyl-benzoxazol-6-yl)-4,5-dihydro-2H-pyridazin-3-one] belongs 82 nM; to `C[C@@H]1CC(c2ccc3nc(-c4ccccc4)oc3c2)=NNC1=O` [Example 4, (R)-4-methyl-6-(2-phenyl-benzoxazol-6-yl)-4,5-dihydro-2H-pyridazin-3-one], 596 nM; to `O=C1NN=C(c2ccc3nc(-c4ccccc4)oc3c2)C2CC12` (stereo not drawn) [Example 5, 5-(2-phenyl-benzoxazol-6-yl)-3,4-diaza-bicyclo[4.1.0]hept-4-en-2-one], 243 nM. To `Cc1c(C2=NNC(=O)C3CC23)ccc2nc(-c3ccccc3)oc12` (stereo not drawn) [Example 6, 5-(7-methyl-2-phenyl-benzoxazol-6-yl)-3,4-diaza-bicyclo[4.1.0]hept-4-en-2-one] belongs 1700 nM; to `C=CCC1CC(c2ccc3nc(-c4ccccc4)oc3c2)=NNC1=O` (stereo not drawn) [Example 7, 4-allyl-6-(2-phenyl-benzoxazol-6-yl)-4,5-dihydro-2H-pyridazin-3-one], 892 nM; to `CCCC1CC(=O)NN=C1c1ccc2nc(-c3ccccc3)oc2c1` (stereo not drawn) [Example 8, 6-(2-phenyl-benzoxazol-6-yl)-5-propyl-4,5-dihydro-2H-pyridazin-3-one], 874 nM.

`CCCC1CC(c2ccc3nc(-c4ccccc4)oc3c2)=NNC1=O` (stereo not drawn) [Example 9, 6-(2-phenyl-benzoxazol-6-yl)-4-propyl-4,5-dihydro-2H-pyridazin-3-one] came in with an EC50 of 834 nM. The result for `O=C1NN=C(c2ccc3nc(-c4ccccc4)oc3c2)C2CCC12` (stereo not drawn) [Example 10, 5-(2-phenyl-benzoxazol-6-yl)-3,4-diaza-bicyclo[4.2.0]oct-4-en-2-one] reads 365 nM; that for `Cc1cc(C2=NNC(=O)C3CC23)cc2oc(-c3ccccc3)nc12` (stereo not drawn) [Example 11, 5-(4-methyl-2-phenyl-benzoxazol-6-yl)-3,4-diaza-bicyclo[4.1.0]hept-4-en-2-one], greater than 10000 nM. To `Cc1cccc(-c2nc3ccc(C4=NNC(=O)C5CC45)cc3o2)c1` (stereo not drawn) [Example 12, 5-(2-m-tolyl-benzoxazol-6-yl)-3,4-diaza-bicyclo[4.1.0]hept-4-en-2-one] belongs 246 nM; to `Cc1ccc(-c2nc3ccc(C4=NNC(=O)C5CC45)cc3o2)cc1` (stereo not drawn) [Example 13, 5-(2-p-tolyl-benzoxazol-6-yl)-3,4-diaza-bicyclo[4.1.0]hept-4-en-2-one], 153 nM; to `Cc1ccc(-c2nc3ccc(C4=NNC(=O)C5CC45)cc3o2)cc1C` (stereo not drawn) [Example 14, 5-[2-(3,4-dimethyl-phenyl)-benzoxazol-6-yl]-3,4-diaza-bicyclo[4.1.0]hept-4-en-2-one], 264 nM. To `O=C1NN=C(c2ccc3nc(-c4ccc(CN5CCCCC5)cc4)oc3c2)C2CC12` (stereo not drawn) [Example 15, 5-[2-(4-piperidin-1-ylmethyl-phenyl)-benoxazol-6-yl]-3,4-diaza-bicyclo[4.1.0]hept-4-en-2-one] belongs 701 nM; to `O=C1CCC(c2ccc3nc(-c4ccccc4)oc3c2)=NN1` [Example 16, 6-(2-phenyl-benzoxazol-6-yl)-4,5-dihydro-2H-pyridazin-3-one], 314 nM.

Turning to `O=C1NN=C(c2ccc3nc(-c4cccc(F)c4)oc3c2)C2CC12` (stereo not drawn) [Example 17, 5-[2-(3-fluoro-phenyl)-benzoxazol-6-yl]-3,4-diaza-bicyclo[4.1.0]hept-4-en-2-one], the EC50 was determined as 223 nM. The result for `O=C1NN=C(c2ccc3nc(-c4ccc(F)cc4)oc3c2)C2CC12` (stereo not drawn) [Example 18, 5-[2-(4-fluoro-phenyl)-benzoxazol-6-yl]-3,4-diaza-bicyclo[4.1.0]hept-4-en-2-one] reads 153 nM; that for `O=C1NN=C(c2ccc3nc(-c4ccc(F)cc4)oc3c2)C2CCC12` (stereo not drawn) [Example 19, 5-[2-(4-fluoro-phenyl)-benzoxazol-6-yl]-3,4-diaza-bicyclo[4.2.0]oct-4-en-2-one], 469 nM. `O=C1NN=C(c2ccc3nc(-c4ccccc4F)oc3c2)C2CC12` (stereo not drawn) [Example 20, 5-[2-(2-fluoro-phenyl)-benzoxazol-6-yl]-3,4-diaza-bicyclo[4.1.0]hept-4-en-2-one] had a half-maximal effective concentration (EC50) of 157 nM.

In the case of `CC1(C)CC(c2ccc3nc(-c4ccccc4)oc3c2)=NNC1=O` [Example 21, 4.4-dimethyl-6-(2-phenyl-benzoxazol-6-yl)-4,5-dihydro-2H-pyridazin-3-one], the concentration giving a half-maximal response (EC50) is greater than 10000 nM. The result for `O=C1NN=C(c2ccc3nc(-c4ccc(CN5CCOCC5)cc4)oc3c2)C2CC12` (stereo not drawn) [Example 22, 5-[2-(4-morpholin-4-ylmethyl-phenyl)-benzoxazol-6-yl]-3,4-diaza-bicyclo[4.1.0]hept-4-en-2-one] reads 1750 nM; that for `CC(C)(C)OC(=O)N1CCN(Cc2ccc(-c3nc4ccc(C5=NNC(=O)C6CC56)cc4o3)cc2)CC1` (stereo not drawn) [Example 23, tert.butyl 4-{4-[6-(5-oxo-3,4-diaza-bicyclo[4.1.0]hept-2-en-2-yl)-benzoxazol-2-yl]-benzyl}-piperazine-1-carboxylate], 1350 nM.

On to `Cc1ccc(-c2nc3ccc(C4=NNC(=O)[C@@H](C)[C@H]4C)cc3o2)s1` [Example 24, (4S,5R)-4,5-dimethyl-6-[2-(5-methyl-thiophen-2-yl)-benzoxazol-6-yl]-4,5-dihydro-2H-pyridazin-3-one], for which a half-maximal effect (EC50) was put at 5100 nM. To `C[C@@H]1C(c2ccc3nc(-c4ccccc4)oc3c2)=NNC(=O)[C@@H]1C` [Example 25, (4R,5S)-4,5-dimethyl-6-(2-phenyl-benzoxazol-6-yl)-4,5-dihydro-2H-pyridazin-3-one] belongs 2370 nM; to `C[C@@H]1C(=O)NN=C(c2ccc3nc(-c4ccccc4)oc3c2)[C@H]1C` [Example 26, (4S,5S)-4,5-dimethyl-6-(2-phenyl-benzoxazol-6-yl)-4,5-dihydro-2H-pyridazin-3-one], 166 nM. The result for `CO[C@@H]1CC(=O)NN=C1c1ccc2nc(-c3ccccc3)oc2c1` [Example 27, (R)-5-methoxy-6-(2-phenyl-benzoxazol-6-yl)-4,5-dihydro-2H-pyridazin-3-one] reads 444 nM; that for `CO[C@H]1CC(=O)NN=C1c1ccc2nc(-c3ccccc3)oc2c1` [Example 28, (5S)-5-methoxy-6-(2-phenyl-1,3-benzoxazol-6-yl)-2,3,4,5-tetrahydropyridazin-3-one], 213 nM; that for `CCC1CC(=O)NN=C1c1ccc2nc(-c3ccccc3)oc2c1` (stereo not drawn) [Example 29, 5-ethyl-6-(2-phenyl-benzoxazol-6-yl)-4,5-dihydro-2H-pyridazin-3-one], 181 nM. The result for `CC[C@@H]1CC(=O)NN=C1c1ccc2nc(-c3ccccc3)oc2c1` [Example 31, (R)-5-ethyl-6-(2-phenyl-benzoxazol-6-yl)-4,5-dihydro-2H-pyridazin-3-one] reads 66 nM. `CC(C)C1CC(=O)NN=C1c1ccc2nc(-c3ccccc3)oc2c1` (stereo not drawn) [Example 32, 5-isopropyl-6-(2-phenyl-benzoxazol-6-yl)-4,5-dihydro-2H-pyridazin-3-one] returned an EC50 of 869 nM. The result for `CCC1CC(=O)NN=C1c1ccc2nc(-c3ccc(OCc4ccccc4)cc3)oc2c1` (stereo not drawn) [Example 33, 6-[2-(4-benzyloxy-phenyl)-benzoxazol-6-yl]-5-ethyl-4,5-dihydro-2H-pyridazin-3-one] reads 70 nM; that for `CC1CC(=O)NN=C1c1ccc2nc(-c3cccc(OCc4ccccc4)c3)oc2c1` (stereo not drawn) [Example 34, 6-[2-(3-benzyloxy-phenyl)-benzoxazol-6-yl]-5-methyl-4,5-dihydro-2H-pyridazin-3-one], 193 nM; that for `CCC1CC(=O)NN=C1c1ccc2nc(-c3cccc(OCc4ccccc4)c3)oc2c1` (stereo not drawn) [Example 35, 6-[2-(3-benzyloxy-phenyl)-benzoxazol-6-yl]-5-ethyl-4,5-dihydro-2H-pyridazin-3-one], 148 nM.
